Source: patent US20100120690A1, “Polypeptides Having Antimicrobial Activity and Polynucleotides Encoding Same” (Novozymes Adenium Biotech A/S, priority 2005, published 2010)

How the values were obtained:
Type in all cases: cell-based
[1] = test system: Staphylococcus aureus, ATCC 29213; assay: MIC, NCCLS/CLSI guidelines (Example 5), strain A; conditions: relative to wildtype Plectasin; average of two independent experiments
Experimental: (§1) Plectasin wild-type (SEQ ID NO: 1) and several variants of Plectasin were expressed and purified. The Minimal Inhibitory Concentration (MIC) was determined to test for their antimicrobial activity following the NCCLS guidelines from CLSI (Clinical and Laboratory Standards Institute; formerly known as National Committee for Clinical and Laboratory Standards).
(§2) The peptides were tested against the following strains: • A: Staphylococcus aureus, ATCC 29213; • B: Staphylococcus aureus, ATCC 25923; • C: Staphylococcus aureus, ATCC 29737; • D: Staphylococcus aureus, MRSA ST5 (2001), multi-resistant clinical human isolate from Statens Serum Institut, Denmark; • E: Staphylococcus aureus, MRSA ST80 (2003), multi-resistant clinical human isolate from Statens Serum Institut, Denmark.
(§3) All MIC values represent an average of two independent experiments; and all results in Table 5 are expressed relative to wildtype Plectasin:
(§4) 0: >100% of Plectasin wildtype MIC; 1: 80-100% of Plectasin wildtype MIC; 2: 50-80% of Plectasin wildtype MIC; 3: <50% of Plectasin wildtype MIC.

[2] = test system: Staphylococcus aureus, ATCC 25923; assay: MIC, NCCLS/CLSI guidelines (Example 5), strain B; conditions: relative to wildtype Plectasin; average of two independent experiments
Experimental: as §1, §2, §3, §4

[3] = test system: Staphylococcus aureus, ATCC 29737; assay: MIC, NCCLS/CLSI guidelines (Example 5), strain C; conditions: relative to wildtype Plectasin; average of two independent experiments
Experimental: as §1, §2, §3, §4

[4] = test system: Staphylococcus aureus, MRSA ST5 (2001); assay: MIC, NCCLS/CLSI guidelines (Example 5), strain D; conditions: relative to wildtype Plectasin; average of two independent experiments
Experimental: as §1, §2, §3, §4

[5] = test system: Staphylococcus aureus, MRSA ST80 (2003); assay: MIC, NCCLS/CLSI guidelines (Example 5), strain E; conditions: relative to wildtype Plectasin; average of two independent experiments
Experimental: as §1, §2, §3, §4

[6] = test system: panel of 6 different strains of Staphylococcus aureus; assay: Average MIC, NCCLS/CLSI guidelines using caMHB (Example 6); conditions: average over 6 S. aureus strains, duplicate; MIC above 32 counted as 64; read after 18-24 hours at 37° C.
In short: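 Six Staphylococcus aureus strains, MSSA and MRSA, were exposed in duplicate to peptide dilutions from 32 down to 0.03 microgram/mL in caMHB following CLSI guidance. Growth was scored after 18-24 h incubation at 37° C. The tabulated value is the mean MIC, with 64 used for any MIC >32 micrograms/mL.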

Substance | Relative MIC, strain A [1] | Relative MIC, strain B [2] | Relative MIC, strain C [3] | Relative MIC, strain D [4] | Relative MIC, strain E [5] | Average MIC [6]
D9A + Q14H + K26R + V36L: variant of Plectasin (SEQ ID NO: 1) (GFGCNGPWAEDDMHCHNHCKSIKGYRGGYCAKGGFLCKCY) | 3 (<50% of Plectasin wildtype MIC) | 3 (<50% of Plectasin wildtype MIC) | 3 (<50% of Plectasin wildtype MIC) | 3 (<50% of Plectasin wildtype MIC) | 3 (<50% of Plectasin wildtype MIC) | 1 micrograms/mL
D9N + M13L + Q14R: variant of Plectasin (SEQ ID NO: 1) (GFGCNGPWNEDDLRCHNHCKSIKGYKGGYCAKGGFVCKCY) | 3 (<50% of Plectasin wildtype MIC) | 3 (<50% of Plectasin wildtype MIC) | 3 (<50% of Plectasin wildtype MIC) | 3 (<50% of Plectasin wildtype MIC) | 3 (<50% of Plectasin wildtype MIC) | 1 micrograms/mL
D9N + Q14H + K38R: variant of Plectasin (SEQ ID NO: 1) (GFGCNGPWNEDDMHCHNHCKSIKGYKGGYCAKGGFVCRCY) | 3 (<50% of Plectasin wildtype MIC) | 3 (<50% of Plectasin wildtype MIC) | 3 (<50% of Plectasin wildtype MIC) | 3 (<50% of Plectasin wildtype MIC) | 2 (50-80% of Plectasin wildtype MIC) | 4 micrograms/mL
D9S + M13L + Q14H: variant of Plectasin (SEQ ID NO: 1) (GFGCNGPWSEDDLHCHNHCKSIKGYKGGYCAKGGFVCKCY) | 3 (<50% of Plectasin wildtype MIC) | 3 (<50% of Plectasin wildtype MIC) | 3 (<50% of Plectasin wildtype MIC) | 3 (<50% of Plectasin wildtype MIC) | 3 (<50% of Plectasin wildtype MIC) | 3 micrograms/mL
D9S + Q14K + V36L: variant of Plectasin (SEQ ID NO: 1) (GFGCNGPWSEDDMKCHNHCKSIKGYKGGYCAKGGFLCKCY) | 3 (<50% of Plectasin wildtype MIC) | 3 (<50% of Plectasin wildtype MIC) | 3 (<50% of Plectasin wildtype MIC) | 3 (<50% of Plectasin wildtype MIC) | 3 (<50% of Plectasin wildtype MIC) | 1 micrograms/mL
D9S + Q14L + K26R: variant of Plectasin (SEQ ID NO: 1) (GFGCNGPWSEDDMLCHNHCKSIKGYRGGYCAKGGFVCKCY) | 3 (<50% of Plectasin wildtype MIC) | 3 (<50% of Plectasin wildtype MIC) | 3 (<50% of Plectasin wildtype MIC) | 3 (<50% of Plectasin wildtype MIC) | 3 (<50% of Plectasin wildtype MIC) | 3 micrograms/mL
M13G + N17R + G33A: variant of Plectasin (SEQ ID NO: 1) (GFGCNGPWDEDDGQCHRHCKSIKGYKGGYCAKAGFVCKCY) | 3 (<50% of Plectasin wildtype MIC) | 3 (<50% of Plectasin wildtype MIC) | 3 (<50% of Plectasin wildtype MIC) | 3 (<50% of Plectasin wildtype MIC) | 3 (<50% of Plectasin wildtype MIC) | 2 micrograms/mL
M13T + Q14K + K26R: variant of Plectasin (SEQ ID NO: 1) (GFGCNGPWDEDDTKCHNHCKSIKGYRGGYCAKGGFVCKCY) | 1 (80-100% of Plectasin wildtype MIC) | 3 (<50% of Plectasin wildtype MIC) | 3 (<50% of Plectasin wildtype MIC) | 2 (50-80% of Plectasin wildtype MIC) | 0 (>100% of Plectasin wildtype MIC) | 7 micrograms/mL
M13Y + Q14K + K26R: variant of Plectasin (SEQ ID NO: 1) (GFGCNGPWDEDDYKCHNHCKSIKGYRGGYCAKGGFVCKCY) | 2 (50-80% of Plectasin wildtype MIC) | 3 (<50% of Plectasin wildtype MIC) | 3 (<50% of Plectasin wildtype MIC) | 3 (<50% of Plectasin wildtype MIC) | 3 (<50% of Plectasin wildtype MIC) | 5 micrograms/mL
N5A + D9S + M13L + N17T: variant of Plectasin (SEQ ID NO: 1) (GFGCAGPWSEDDLQCHTHCKSIKGYKGGYCAKGGFVCKCY) | 0 (>100% of Plectasin wildtype MIC) | 3 (<50% of Plectasin wildtype MIC) | 3 (<50% of Plectasin wildtype MIC) | 2 (50-80% of Plectasin wildtype MIC) | 3 (<50% of Plectasin wildtype MIC) | 6 micrograms/mL
N5G + D9S + M13L + N17Q + A31T: variant of Plectasin (SEQ ID NO: 1) (GFGCGGPWSEDDLQCHQHCKSIKGYKGGYCTKGGFVCKCY) | 3 (<50% of Plectasin wildtype MIC) | 3 (<50% of Plectasin wildtype MIC) | 3 (<50% of Plectasin wildtype MIC) | 3 (<50% of Plectasin wildtype MIC) | 3 (<50% of Plectasin wildtype MIC) | 3 micrograms/mL
N5G + M13L: variant of Plectasin (SEQ ID NO: 1) (GFGCGGPWDEDDLQCHNHCKSIKGYKGGYCAKGGFVCKCY) | 2 (50-80% of Plectasin wildtype MIC) | 3 (<50% of Plectasin wildtype MIC) | 3 (<50% of Plectasin wildtype MIC) | 3 (<50% of Plectasin wildtype MIC) | 3 (<50% of Plectasin wildtype MIC) | 4 micrograms/mL
N5G + M13Y + N17K: variant of Plectasin (SEQ ID NO: 1) (GFGCGGPWDEDDYQCHKHCKSIKGYKGGYCAKGGFVCKCY) | 3 (<50% of Plectasin wildtype MIC) | 3 (<50% of Plectasin wildtype MIC) | 3 (<50% of Plectasin wildtype MIC) | 3 (<50% of Plectasin wildtype MIC) | 2 (50-80% of Plectasin wildtype MIC) | 5 micrograms/mL
N5G + Q14K: variant of Plectasin (SEQ ID NO: 1) (GFGCGGPWDEDDMKCHNHCKSIKGYKGGYCAKGGFVCKCY) | 2 (50-80% of Plectasin wildtype MIC) | 2 (50-80% of Plectasin wildtype MIC) | 3 (<50% of Plectasin wildtype MIC) | 0 (>100% of Plectasin wildtype MIC) | 2 (50-80% of Plectasin wildtype MIC) | 9 micrograms/mL
N5R + M13Y + N17R: variant of Plectasin (SEQ ID NO: 1) (GFGCRGPWDEDDYQCHRHCKSIKGYKGGYCAKGGFVCKCY) | 3 (<50% of Plectasin wildtype MIC) | 3 (<50% of Plectasin wildtype MIC) | 3 (<50% of Plectasin wildtype MIC) | 3 (<50% of Plectasin wildtype MIC) | 3 (<50% of Plectasin wildtype MIC) | 1 micrograms/mL
